Measured values taken from patent US12187738B2, “Imidazolo derivatives, compositions and methods as orexin antagonists” (HAGER BIOSCIENCES, LLC, priority 2019, dated 2025).

Tests used:
human orexin-1 receptor = biological target: T1, human orexin-1 receptor (Homo sapiens, UniProt O43613); test: Intracellular calcium measurement (FLIPR), orexin-1 receptor antagonism; format: cell-based; details: CHO cells expressing human orexin-1 receptor, 3 nM orexin-A agonist; for inhibition at 1 µM: 1 uM compound, read-out: % Inhibition of OX1R @ 1 uM compound; for IC50: read-out: IC50 OX1R; for Kb: read-out: Kb OX1R
T1 construct: expressed in transfected cells; host or cells: CHO cells (G418 selection)
T1 sequence (O43613 1-425): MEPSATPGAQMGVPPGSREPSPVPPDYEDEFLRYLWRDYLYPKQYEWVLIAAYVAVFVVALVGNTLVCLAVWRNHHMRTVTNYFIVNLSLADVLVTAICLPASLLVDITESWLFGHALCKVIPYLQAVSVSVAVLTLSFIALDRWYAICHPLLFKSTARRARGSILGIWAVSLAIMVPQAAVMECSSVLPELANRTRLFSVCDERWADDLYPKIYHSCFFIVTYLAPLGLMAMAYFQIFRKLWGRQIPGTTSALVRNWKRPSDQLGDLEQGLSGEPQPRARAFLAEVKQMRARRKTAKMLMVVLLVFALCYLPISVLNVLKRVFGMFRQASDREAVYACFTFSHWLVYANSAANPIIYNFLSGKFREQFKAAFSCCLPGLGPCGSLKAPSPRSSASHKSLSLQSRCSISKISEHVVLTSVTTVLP
Protocol: (§1) Antagonistic activities on both orexin receptors have been measured for each example compound using the following procedure:
(§2) In Vitro Assay: Intracellular Calcium Measurements:
(§3) Chinese hamster ovary (CHO) cells expressing the human orexin-1 receptor and the human orexin-2 receptor, respectively, are grown in culture medium (Ham F-12 with L-Glutamine) containing 300 μg/mL G418, 100 U/mL penicillin, 100 μg/mL streptomycin and 10% heat inactivated fetal calf serum (FCS). The cells are seeded at 20′000 cells/well into 384-well black clear bottom sterile plates (Greiner). The seeded plates are incubated overnight at 37° C. in 5% CO2. Human orexin-A as an agonist is prepared as 1 mM stock solution in MeOH:water (1:1), diluted in HBSS containing 0.1% bovine serum albumin (BSA), NaHCO 3: 0.375 g/L and 20 mM HEPES for use in the assay at a final concentration of 3 nM.
(§4) Antagonists are prepared as 10 mM stock solution in DMSO, then diluted in 384-well plates using DMSO followed by a transfer of the dilutions into in HBSS containing 0.1% bovine serum albumin (BSA), NaHCO 3: 0.375 g/L and 20 mM HEPES. On the day of the assay, 50 μL of staining buffer (HBSS containing 1% FCS, 20 mM HEPES, NaHCO 3: 0.375 g/L, 5 mM probenecid (Sigma) and 3 μM of the fluorescent calcium indicator fluo-4 AM (1 mM stock solution in DMSO, containing 10% pluronic) is added to each well. The 384-well cell-plates are incubated for 50 min at 37° C. in 5% CO2 followed by equilibration at RT for 30 min before measurement.
(§5) Within the Fluorescent Imaging Plate Reader (FLIPR Tetra, Molecular Devices), antagonists are added to the plate in a volume of 10 μL/well, incubated for 120 min and finally 10 μL/well of agonist is added. Fluorescence is measured for each well at 1 second intervals, and the height of each fluorescence peak is compared to the height of the fluorescence peak induced by 3 nM orexin-A with vehicle in place of antagonist. The IC50 value (the concentration of compound needed to inhibit 50% of the agonistic response) is determined and may be normalized using the obtained IC50 value of an on-plate reference compound. Optimized conditions were achieved by adjustment of pipetting speed and cell splitting regime. The calculated IC50 values may fluctuate depending on the daily cellular assay performance. Fluctuations of this kind are known to those skilled in the art. In the case where IC50 values have been determined several times for the same compound, the geometric mean has been given.

human orexin-2 receptor = biological target: T2, human orexin-2 receptor (Homo sapiens, UniProt O43614); test: Intracellular calcium measurement (FLIPR), orexin-2 receptor antagonism; format: cell-based; details: CHO cells expressing human orexin-2 receptor, 3 nM orexin-A agonist; for inhibition at 1 µM: 1 uM compound, read-out: % Inhibition of OX2R @ 1 uM compound
T2 construct: expressed in transfected cells; host or cells: CHO cells (G418 selection)
T2 sequence (O43614 1-444): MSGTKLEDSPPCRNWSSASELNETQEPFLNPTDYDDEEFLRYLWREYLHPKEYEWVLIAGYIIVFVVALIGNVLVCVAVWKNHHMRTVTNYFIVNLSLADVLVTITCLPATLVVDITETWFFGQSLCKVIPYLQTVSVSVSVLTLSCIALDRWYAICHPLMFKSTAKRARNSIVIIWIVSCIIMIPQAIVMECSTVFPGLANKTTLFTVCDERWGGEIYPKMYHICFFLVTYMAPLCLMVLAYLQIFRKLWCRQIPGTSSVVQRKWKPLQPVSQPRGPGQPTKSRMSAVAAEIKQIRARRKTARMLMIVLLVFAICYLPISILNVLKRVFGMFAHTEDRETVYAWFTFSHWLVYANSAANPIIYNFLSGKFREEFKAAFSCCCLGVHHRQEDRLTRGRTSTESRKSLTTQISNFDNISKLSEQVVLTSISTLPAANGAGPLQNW
Protocol: as §1, §2, §3, §4, §5

| SMILES | inhibition at 1 µM (human orexin-1 receptor) [%] | inhibition at 1 µM (human orexin-2 receptor) [%] | IC50 (human orexin-1 receptor) [nM] | Kb (human orexin-1 receptor) [nM] | IC50 (human orexin-2 receptor; read-out: IC50 OX2R) [nM] | Kb (human orexin-2 receptor; read-out: Kb OX2R) [nM] |
| --- | --- | --- | --- | --- | --- | --- |
| O=C(c1c(-c2ccccc2)nc2occn12)N1CCC[C@H]1CNc1ccc(C(F)(F)F)cn1 [Example 3] | 45.8 | 14.4 | – | – | – | – |
| CCc1cnc(NC[C@@H]2CCCN2C(=O)c2c(-c3ccccc3)nc3occn23)nc1 [Example 5] | 0.5 | 3.3 | – | – | – | – |
| CCc1cnc(NC[C@@H]2[C@H](C)CCCN2C(=O)c2c(-c3ccccc3)nc3occn23)nc1 [Example 7] | 48.1 | 6.75 | – | – | – | – |
| C[C@@H]1CCCN(C(=O)c2c(-c3ccccc3)nc3occn23)[C@@H]1CNc1ccc(C(F)(F)F)cn1 [Example 8] | 81.6 | 1.8 | 11 | 2 | – | – |
| CCc1cnc(NC[C@@H]2CCCN2C(=O)c2c(-c3ccc(F)cc3)nc3sc(C)nn23)nc1 [Example 11] | 16.1 | 12 | – | – | – | – |
| Cc1nn2c(C(=O)N3CCC[C@@H](C)[C@H]3CNc3ccc(C(F)(F)F)cn3)c(-c3ccc(F)cc3)nc2s1 [Example 12] | 79.8 | 11.8 | 13 | 3 | – | – |
| CCc1cnc(NC[C@@H]2CCCN2C(=O)c2c(-c3ccccc3F)nc3sccn23)nc1 [Example 15] | 25.1 | 15.2 | – | – | – | – |
| CCc1cnc(OC[C@@H]2CCCN2C(=O)c2c(-c3ccccc3)nc3occn23)nc1 [Example 17] | 4.5 | 8.06 | – | – | – | – |
| O=C(c1c(-c2ccccc2)nc2occn12)N1CCC[C@H]1COc1ccc(C(F)(F)F)cn1 [Example 18] | 37.1 | 14.9 | – | – | – | – |

Now from value to molecule:

| inhibition at 1 µM (human orexin-1 receptor) [%] | inhibition at 1 µM (human orexin-2 receptor) [%] | IC50 (human orexin-1 receptor) [nM] | Kb (human orexin-1 receptor) [nM] | IC50 (human orexin-2 receptor; read-out: IC50 OX2R) [nM] | Kb (human orexin-2 receptor; read-out: Kb OX2R) [nM] | SMILES |
| --- | --- | --- | --- | --- | --- | --- |
| 70.4 | 26.6 | – | – | – | – | O=C(c1c(-c2ccccc2)nc2occn12)N1CCC[C@H]1Cn1ccc(-c2ccccc2)n1 [Example 1] |
| 83 | 39.9 | – | – | – | – | O=C(c1c(-c2ccccc2)nc2sccn12)N1CCC[C@H]1Cn1ccc(-c2ccccc2)n1 [Example 2] |
| 61.1 | 25.4 | – | – | – | – | O=C(c1c(-c2ccccc2)nc2sccn12)N1CCC[C@H]1CNc1ccc(C(F)(F)F)cn1 [Example 4] |
| -5.39 | 16.2 | – | – | – | – | CCc1cnc(NC[C@@H]2CCCN2C(=O)c2c(-c3ccccc3)nc3sccn23)nc1 [Example 6] |
| 81.4 | 10.7 | 18 | 4 | – | – | C[C@@H]1CCCN(C(=O)c2c(-c3ccccc3)nc3sccn23)[C@@H]1CNc1ccc(C(F)(F)F)cn1 [Example 9] |
| 63.5 | 9.37 | 270 | 57 | – | – | CCc1cnc(NC[C@@H]2[C@H](C)CCCN2C(=O)c2c(-c3ccccc3)nc3sccn23)nc1 [Example 10] |
| 62.8 | 29 | – | – | – | – | O=C(c1c(-c2ccccc2F)nc2sccn12)N1CCC[C@H]1CNc1ccc(C(F)(F)F)cn1 [Example 13] |
| 87.4 | 57 | 12 | 3 | 1750 | 241 | O=C(c1c(-c2ccccc2F)nc2sccn12)N1CCC[C@H]1Cn1ccc(-c2ccccc2)n1 [Example 14] |
| 90.3 | 34.4 | 7 | 1.5 | – | – | O=C(c1c(-c2ccc(F)cc2)nc2scnn12)N1CCC[C@H]1Cn1ccc(-c2ccccc2)n1 [Example 16] |
